The source of these data is patent US9713613B2, “Methods and compositions for the treatment of cancer and related hyperproliferative disorders” (priority 2007, dated 2017).

One assay deals with T1, SCAP (Cricetulus griseus, UniProt P97260).
T1 construct: endogenous in cells; host or cells: CHO-K1 (membrane fraction extracted with 0.1% FOS-Choline 10)
T1 sequence (P97260 1-1276): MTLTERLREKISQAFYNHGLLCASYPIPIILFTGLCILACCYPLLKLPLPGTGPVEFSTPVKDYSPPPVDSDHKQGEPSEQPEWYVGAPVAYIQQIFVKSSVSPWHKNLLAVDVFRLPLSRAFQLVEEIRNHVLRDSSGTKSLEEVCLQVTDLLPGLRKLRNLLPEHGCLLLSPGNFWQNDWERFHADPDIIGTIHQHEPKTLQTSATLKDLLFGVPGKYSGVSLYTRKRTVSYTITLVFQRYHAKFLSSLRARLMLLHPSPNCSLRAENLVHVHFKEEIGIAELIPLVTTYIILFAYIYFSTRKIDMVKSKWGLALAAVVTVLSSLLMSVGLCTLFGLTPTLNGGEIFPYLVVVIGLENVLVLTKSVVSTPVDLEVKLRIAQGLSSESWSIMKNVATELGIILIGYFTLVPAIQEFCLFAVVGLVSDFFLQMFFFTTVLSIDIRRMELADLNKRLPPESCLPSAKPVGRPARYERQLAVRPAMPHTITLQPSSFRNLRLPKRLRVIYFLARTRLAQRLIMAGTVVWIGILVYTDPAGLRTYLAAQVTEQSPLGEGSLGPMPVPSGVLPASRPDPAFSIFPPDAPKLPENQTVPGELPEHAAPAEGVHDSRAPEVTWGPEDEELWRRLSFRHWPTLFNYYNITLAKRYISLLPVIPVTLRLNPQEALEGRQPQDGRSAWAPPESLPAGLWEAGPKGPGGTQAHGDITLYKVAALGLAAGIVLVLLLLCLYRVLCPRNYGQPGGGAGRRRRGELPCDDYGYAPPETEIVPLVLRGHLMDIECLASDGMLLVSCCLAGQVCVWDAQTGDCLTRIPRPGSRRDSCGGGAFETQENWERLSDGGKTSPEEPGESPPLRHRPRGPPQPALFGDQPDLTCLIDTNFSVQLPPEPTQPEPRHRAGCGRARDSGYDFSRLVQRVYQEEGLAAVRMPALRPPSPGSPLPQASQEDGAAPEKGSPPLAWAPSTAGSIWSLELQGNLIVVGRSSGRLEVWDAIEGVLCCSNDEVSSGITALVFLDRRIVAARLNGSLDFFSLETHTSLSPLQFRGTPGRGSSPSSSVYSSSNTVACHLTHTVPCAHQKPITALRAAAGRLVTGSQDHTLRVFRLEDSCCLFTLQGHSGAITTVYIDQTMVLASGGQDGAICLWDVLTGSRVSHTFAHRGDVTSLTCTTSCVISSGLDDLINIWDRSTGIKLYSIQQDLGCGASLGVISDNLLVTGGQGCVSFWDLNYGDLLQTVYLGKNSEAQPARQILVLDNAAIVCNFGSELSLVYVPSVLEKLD
Description: Binding assay, biotinylated fatostatin on Neutravidine-agarose beads, CHO-K1 membrane extract. More on the design: species or system Chinese hamster. The note with it: not bound: SREBP-1, SREBP-2, ATF6. From the text: The selective ER localization implies that fatostatin binds to a protein in the ER; the most likely candidate is SCAP, the target of cholesterol for the control of SREBP (Radhakrishnan et al., 2004). To test this hypothesis, proteins bound to a fatostatin-polyproline linker-biotin conjugate (FIG. 20A) (Sato et al., 2007) were purified from cell lysates and analyzed by western blots with antibodies against SCAP, SREBP-1, SREBP-2, and ATF6, an unrelated ER-bound transcription factor (Ye et al., 2000). […] The binding was lost upon addition of excess fatostatin, but not excess cholesterol (FIG. 20D), raising the possibility that fatostatin may interact with SCAP in a site distinct from that of cholesterol.
Binding assay. Cell membrane fractions were prepared as described in Supplementary Methods. The membrane fraction was extracted with PBS containing 0.1% FOS-Choline 10 (Hampton Research). The extract was mixed with Neutravidine-agarose beads (10 μL) saturated with biotinylated fatostatin and incubated for 1 h. The bound proteins were washed four times with PBS containing 0.1% FOS-Choline 10, boiled in 25 μL of SDS sample buffer, and subjected to western blotting. For the competition assay, saturated amounts of cholesterol or fatostatin were added to the membrane extract before incubating with the beads.

The next assay concerns PLAP-BP2. The assay is described as follows: PLAP-BP2 cleavage assay in CHO-K1 cells. Type of assay: cell-based, Chinese hamster. The note with it: 20 μM. From the text:
(§1) To determine if fatostatin affects the ER-Golgi translocation and proteolytic processing of SREBPs, a reporter assay developed by Sakai et al. (1998) was used. PLAP-BP2 in transfected CHO-K1 cells remains membrane-bound unless it is cleaved by S1P in the Golgi and secreted into the culture medium. In the assay, a secreted alkaline phosphatase, fused with an SREBP-2 fragment lacking the NH2-terminal DNA-binding domain (PLAP-BP2513-1141), permits monitoring of translocation and processing through changes in the fluorescence of a fluorogenic phosphatase substrate (FIG. 18C). When cells were co-transfected with plasmids encoding PLAP-BP2513-1141 and SCAP, PLAP phosphatase was secreted, generating fluorescence signals. […] The fatostatin-mediated inhibition of SREBP activation was confirmed by western blot analysis of SREBPs. […] Similar results were obtained for SREBP-1 (FIG. 22).
PLAP-BP2 Cleavage. On day 0, CHO-K1 cells were plated out onto a 96-well plate in medium A. On day 2, the cells were transiently co-transfected with pCMV-PLAP-BP2(513-1141), pCMV-SCAP and pAc-β-gal, using Lipofectamine reagent (Invitrogen). […]

Another assay has as its system SREBP-2. Description: Western blot analysis of SREBP processing in CHO-K1 cells. Type of assay: cell-based, Chinese hamster.
Excerpt: as §1
Western blot analysis of SREBP processing. […] The protein concentration of each total cell extract was measured (BCA kit; Pierce), after which a 22-33 μg aliquot of cell extract was mixed with 0.25 volume of buffer (250 mM Tris-HCl, pH 6.8, 10% SDS, 25% glycerol, 0.2% (w/v) bromophenol blue, and 5% (v/v) 2-mercaptoethanol), heated for 7 min at 95° C. […]
(Immunoblotting shows a protein as a band on a membrane.)

Take `CCCc1cc(-c2nc(-c3ccc(C)cc3)cs2)ccn1` [Compound 1, 2-propyl-4-(4-p-tolylthiazol-2-yl)pyridine]: on SCAP, the “binding to SCAP (western blot of bound proteins)” value is on record as “bound to SCAP”. Besides, the “secretion of PLAP phosphatase (PLAP-BP2 cleavage)” value with PLAP-BP2 is on record as “decreased”. For the same compound, the “amounts of mature and precursor forms of SREBP-2 (western blot)” value in the assay on SREBP-2 is “decreased the amount of the 68 KDa mature form of SREBP-2”.
